Assay results from patent US7553864B2, “Compounds for the treatment of inflammatory disorders and microbial diseases” (Schering Corporation, priority 2005, dated 2009).

System: LpxC enzyme
Assay: LpxC enzyme assay (RapidFire high-throughput mass spectrometry)
Type: biochemical
Procedure, shortened: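 0.2 nM enzyme with 1.0 μM UDP-3-O-(R-3-hydroxymyristoyl)-N-acetylglucosamine in 25 mM HEPES pH 7.3, 150 mM NaCl, 2.0 mM DTT, 0.01% BSA, 2% DMSO; 60 min at room temperature, quenched with HCl. Substrate and product quantified by RapidFire mass spectrometry; percent conversion gives percent inhibition versus DMSO control.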

[1] = concentration 0.10 (unit not given)
[2] = concentration 0.20 (unit not given)
[3] = concentration 0.39 (unit not given)
[4] = concentration 0.78 (unit not given)
[5] = concentration 1.56 (unit not given)
[6] = concentration 3.13 (unit not given)
[7] = concentration 6.25 (unit not given)
[8] = concentration 12.50 (unit not given)
[9] = concentration 25 (unit not given)
[10] = concentration 50 (unit not given)

Row | Structure (SMILES) | LpxC enzyme assay rating (% inhibition at indicated concentrations) [1] | LpxC enzyme assay rating (% inhibition at indicated concentrations) [2] | LpxC enzyme assay rating (% inhibition at indicated concentrations) [3] | LpxC enzyme assay rating (% inhibition at indicated concentrations) [4] | LpxC enzyme assay rating (% inhibition at indicated concentrations) [5] | LpxC enzyme assay rating (% inhibition at indicated concentrations) [6] | LpxC enzyme assay rating (% inhibition at indicated concentrations) [7] | LpxC enzyme assay rating (% inhibition at indicated concentrations) [8] | LpxC enzyme assay rating (% inhibition at indicated concentrations) [9] | LpxC enzyme assay rating (% inhibition at indicated concentrations) [10]
1 | O=C(NCCCCl)[C@H](O)[C@@H](O)C(=O)Nc1ccc(-n2cccn2)cc1 [Compound 62] | C (less than 10% inhibition) | C (less than 10% inhibition) | C (less than 10% inhibition) | C (less than 10% inhibition) | B (10-30% inhibition) | C (less than 10% inhibition) | B (10-30% inhibition) | B (10-30% inhibition) | B (10-30% inhibition) | C (less than 10% inhibition)
2 | O=C(Nc1ccc(C#Cc2ccccc2)cc1)[C@H](O)[C@@H](O)C(=O)N1CCCC1 [Compound 63] | B (10-30% inhibition) | B (10-30% inhibition) | B (10-30% inhibition) | C (less than 10% inhibition) | B (10-30% inhibition) | B (10-30% inhibition) | B (10-30% inhibition) | A (greater than 30% inhibition) | A (greater than 30% inhibition) | A (greater than 30% inhibition)
3 | O=C(Nc1ccc(-c2ccccc2)cc1)[C@H](O)[C@@H](O)C(=O)N1CCCC1 [Compound 64] | B (10-30% inhibition) | B (10-30% inhibition) | C (less than 10% inhibition) | B (10-30% inhibition) | C (less than 10% inhibition) | B (10-30% inhibition) | B (10-30% inhibition) | B (10-30% inhibition) | B (10-30% inhibition) | B (10-30% inhibition)
4 | O=C(Nc1ccc(-c2ccc(C(F)(F)F)cc2)cc1)[C@H](O)[C@@H](O)C(=O)N1CCCC1 [Compound 65] | B (10-30% inhibition) | B (10-30% inhibition) | B (10-30% inhibition) | C (less than 10% inhibition) | B (10-30% inhibition) | B (10-30% inhibition) | B (10-30% inhibition) | B (10-30% inhibition) | B (10-30% inhibition) | B (10-30% inhibition)
5 | CCCCc1ccc(NC(=O)[C@H](O)[C@@H](O)C(=O)N2CCCC2)cc1 [Compound 66] | C (less than 10% inhibition) | C (less than 10% inhibition) | B (10-30% inhibition) | C (less than 10% inhibition) | B (10-30% inhibition) | B (10-30% inhibition) | B (10-30% inhibition) | B (10-30% inhibition) | A (greater than 30% inhibition) | B (10-30% inhibition)
6 | CCCc1ccc(NC(=O)[C@H](O)[C@@H](O)C(=O)N2CCCC2)cc1 [Compound 67] | B (10-30% inhibition) | B (10-30% inhibition) | B (10-30% inhibition) | C (less than 10% inhibition) | C (less than 10% inhibition) | C (less than 10% inhibition) | B (10-30% inhibition) | C (less than 10% inhibition) | B (10-30% inhibition) | B (10-30% inhibition)
7 | CCC(C)c1ccc(NC(=O)[C@H](O)[C@@H](O)C(=O)N2CCCC2)cc1 (stereo partly shown) [Compound 68] | C (less than 10% inhibition) | C (less than 10% inhibition) | C (less than 10% inhibition) | C (less than 10% inhibition) | C (less than 10% inhibition) | B (10-30% inhibition) | B (10-30% inhibition) | C (less than 10% inhibition) | B (10-30% inhibition) | B (10-30% inhibition)
8 | O=C([C@H](O)[C@@H](O)C(=O)N1CCC(c2ccc(C(F)(F)F)cc2)CC1)N1CCCC1 [Compound 69] | C (less than 10% inhibition) | C (less than 10% inhibition) | C (less than 10% inhibition) | C (less than 10% inhibition) | C (less than 10% inhibition) | C (less than 10% inhibition) | C (less than 10% inhibition) | C (less than 10% inhibition) | C (less than 10% inhibition) | C (less than 10% inhibition)
9 | O=C([C@H](O)[C@@H](O)C(=O)N1CCC(c2ccc3ccccc3c2)CC1)N1CCCC1 [Compound 70] | C (less than 10% inhibition) | C (less than 10% inhibition) | C (less than 10% inhibition) | B (10-30% inhibition) | C (less than 10% inhibition) | C (less than 10% inhibition) | C (less than 10% inhibition) | C (less than 10% inhibition) | B (10-30% inhibition) | C (less than 10% inhibition)
10 | O=C(Nc1ccc(Oc2ccccc2)cc1)[C@H](O)[C@@H](O)C(=O)N1CCCC1 [Compound 71] | B (10-30% inhibition) | C (less than 10% inhibition) | B (10-30% inhibition) | B (10-30% inhibition) | B (10-30% inhibition) | B (10-30% inhibition) | C (less than 10% inhibition) | C (less than 10% inhibition) | C (less than 10% inhibition) | C (less than 10% inhibition)
